# In patent US12163955B2, “Antibodies to methotrexate and uses thereof” (Ark Diagnostics, Inc., priority 2023, dated 2024):
# How the values were obtained:
# [1] = cited from earlier work
# [2] = MTX Assay calibration curve (homogeneous enzyme immunoassay, Beckman AU680); format: biochemical
# Procedure: The top clones (281H3/28K1, 321H1/32K2 and 64H1/64K1) were selected based on performance for larger scale production and purification (Table 5). These clones were then used for further studies. To make the initial antibody reagent, both clones were diluted to 100 μg/mL with antibody diluent. Then a 1:4 ratio mixture of […] to Clone 64H1/64K1 was made and spiked into antibody diluent. […]
# The MTX Assay calibration range is from 0.00 to 1.30 μM. Calibration curves were generated on the Beckman AU680 by assaying each calibrator level in quadruplicate. The Beckman AU680 analyzer performs the nonlinear data analysis automatically using multi-parameter curve-fit math model. Typical calibrator separations are shown for the MTX Assay in Table 6. […] The calculation for feasibility lot percent modulation is shown below: • Max Rate=640.3 mA/min. • Negative Calibrator Rate=358.5 mA/min. • High Calibrator Rate (1.30 μM)=608.7 mA/min. • Total Curve ΔmA=High Cal. Rate−Negative Cal.
# MTX antibodies [3] = test: Specificity in absence of MTX, cross-reactivity (MTX Assay); format: binding, rabbit; conditions: Trimethoprim 150 μmol/L, Triamterene 25 μmol/L; for % Cross-reactivity: no MTX
# MTX antibodies [4] = test: as above; format: binding, rabbit; conditions: no MTX
# Description: “Cross-reactivity” refers to the reaction of an antibody with an antigen that was not used to induce that antibody. “Cross-reactivity” may be determined in a quantitative immunoassay by establishing a standard curve using known dilutions of the target analyte. The standard curve is then used to calculate the apparent concentration of the interfering substance present in various known amounts in samples assayed under similar condition. The cross-reactivity is the apparent concentration divided by the actual concentration multiplied by 100.
# […] Solvent controls were also prepared and tested.
# Cross-reactivity with DAMPA was also tested DAMPA stock solution was spiked into negative serum pool without the presence of MTX.
# [5] = single dose; within 15 minutes; cited from earlier work
molecule,measurement,setting,value
"CN(Cc1cnc2nc(N)nc(N)c2n1)c1ccc(C(=O)N[C@@H](CCC(=O)O)C(=O)O)cc1 [MTX, (2S)-2-[[4-[(2,4-diaminopteridin-6-yl)methyl-methylamino]benzoyl]amino]pentanedioic acid]",MTX serum concentration reached,"[1]; following a 4-hour infusion, pediatric patients with osteosarcoma",up to 3100 μmol/L
same,MTX serum concentration,[1]; high dose therapy for osteosarcoma,exceed 1000 μmol/L
same,MTX decay curve level,"[1]; osteosarcoma, 72 hours",less than 0.3 μmol/L
same,Calibration curve separation,[2]; 0.00-0.05 μM,21.5 mA/min
same,Calibration curve separation,[2]; 0.00-1.30 μM,250.2 mA/min
same,Calibration curve separation,[2]; 0.05-0.15 μM,44.9 mA/min
same,Calibration curve separation,[2]; 0.15-0.35 μM,79.7 mA/min
same,Calibration curve separation,[2]; 0.35-0.65 μM,61.0 mA/min
same,Calibration curve separation,[2]; 0.65-1.30 μM,43.1 mA/min
same,Calibrator rate,[2]; Calibrator Conc. 0.00 μM,358.5 mA/min
same,Calibrator rate,[2]; Calibrator Conc. 0.05 μM,380.0 mA/min
same,Calibrator rate,[2]; Calibrator Conc. 0.15 μM,424.8 mA/min
same,Calibrator rate,[2]; Calibrator Conc. 0.35 μM,504.6 mA/min
same,Calibrator rate,[2]; Calibrator Conc. 0.65 μM,565.6 mA/min
same,Calibrator rate,[2]; Calibrator Conc. 1.30 μM,608.7 mA/min
Nc1nc(N)c2nc(-c3ccccc3)c(N)nc2n1 [Triamterene],No MTX Mean,MTX antibodies [3],0.009 µmol/L
same,% Cross-reactivity,MTX antibodies [3],0.03%
"CN(Cc1cnc2nc(N)nc(N)c2n1)c1ccc(C(=O)O)cc1 [DAMPA, 4-(((2,4-diaminopteridin-6-yl)methyl)(methyl)amino)benzoic acid]",Apparent Conc.,MTX antibodies [4]; DAMPA 0.04 μmol/L in negative serum pool,0.023 µmol/L
same,% Cross-reactivity,MTX antibodies [4]; DAMPA 0.04 μmol/L,57.50%
same,Apparent Conc.,MTX antibodies [4]; DAMPA 0.10 μmol/L in negative serum pool,0.052 µmol/L
same,% Cross-reactivity,MTX antibodies [4]; DAMPA 0.10 μmol/L,51.50%
same,Apparent Conc.,MTX antibodies [4]; DAMPA 0.50 μmol/L in negative serum pool,0.215 µmol/L
same,% Cross-reactivity,MTX antibodies [4]; DAMPA 0.50 μmol/L,42.93%
same,Apparent Conc.,MTX antibodies [4]; DAMPA 0.80 μmol/L in negative serum pool,0.187 µmol/L
same,% Cross-reactivity,MTX antibodies [4]; DAMPA 0.80 μmol/L,23.42%
same,Apparent Conc.,MTX antibodies [4]; DAMPA 1.00 μmol/L in negative serum pool,0.188 µmol/L
same,% Cross-reactivity,MTX antibodies [4]; DAMPA 1.00 μmol/L,18.80%
COc1cc(Cc2cnc(N)nc2N)cc(OC)c1OC [Trimethoprim],No MTX Mean,MTX antibodies [3],0.000 µmol/L
same,% Cross-reactivity,MTX antibodies [3],0.00%
"glucarpidase: antidote that converts MTX into DAMPA and glutamate (protein, UniProt P06621 23-415, looked up) Carboxypeptidase G2: ALAQKRDNVLFQAATDEQPAVIKTLEKLVNIETGTGDAEGIAAAGNFLEAELKNLGFTVTRSKSAGLVVGDNIVGKIKGRGGKNLLLMSHMDTVYLKGILAKAPFRVEGDKAYGPGIADDKGGNAVILHTLKLLKEYGVRDYGTITVLFNTDEEKGSFGSRDLIQEEAKLADYVLSFEPTSAGDEKLSLGTSGIAYVQVNITGKASHAGAAPELGVNALVEASDLVLRTMNIDDKAKNLRFNWTIAKAGNVSNIIPASATLNADVRYARNEDFDAAMKTLEERAQQKKLPEADVKVIVTRGRPAFNAGEGGKKLVDKAVAYYKEAGGTLGVEERTGGGTDAAYAALSGKPVIESLGLPGFGYHSDKAEYVDISAIPRRLYMAARLIMDLGAGK",reduction of plasma MTX concentrations,[5],≥ 97%
